Results reported in US10131653B2, “Heterocyclic compound” (TAKEDA PHARMACEUTICAL COMPANY LIMITED, priority 2015, dated 2018).
Structures can show the parent of a compound that is named as a salt. Where two headings read alike, the source gives them in different places.

Key:
human OX1 receptor = biological target: T1, human OX1 receptor (Homo sapiens, UniProt O43613); test: Measurement of orexin receptor antagonistic activity (calcium fluorescence, FLIPRtetra); format: cell-based; conditions: for inhibition at 10 µM: CHO, read-out: Human Orexin1 receptor inhibition (at 10 μM)
T1 construct: expressed in transfected cells; host or cells: CHO cells
T1 sequence (O43613 1-425): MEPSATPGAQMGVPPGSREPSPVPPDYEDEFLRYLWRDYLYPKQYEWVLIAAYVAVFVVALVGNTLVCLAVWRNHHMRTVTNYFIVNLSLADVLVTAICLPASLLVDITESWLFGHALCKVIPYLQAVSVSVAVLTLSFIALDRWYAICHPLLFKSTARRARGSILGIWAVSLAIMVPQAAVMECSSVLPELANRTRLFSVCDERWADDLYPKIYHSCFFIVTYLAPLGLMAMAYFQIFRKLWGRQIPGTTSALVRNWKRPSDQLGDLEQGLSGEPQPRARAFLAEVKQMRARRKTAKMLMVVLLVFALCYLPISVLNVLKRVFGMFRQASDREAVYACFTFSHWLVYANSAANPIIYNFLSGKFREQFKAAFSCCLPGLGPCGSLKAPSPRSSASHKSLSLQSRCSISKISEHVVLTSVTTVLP
In short: (§1)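 CHO cells expressing human OX1 or OX2 receptor, cultured one day. Compound in HBSS/20 mM HEPES/0.1% BSA added, then orexin-A at 1 nM final (OX1) or 0.3 nM final (OX2); calcium fluorescence by FLIPRtetra every 1 s for 2 min.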

human OX2 receptor = biological target: T2, human OX2 receptor (Homo sapiens, UniProt O43614); test: as above; format: cell-based; conditions: for inhibition at 10 µM: CHO, read-out: Human Orexin2 receptor inhibition (at 10 μM)
T2 construct: expressed in transfected cells; host or cells: CHO cells
T2 sequence (O43614 1-444): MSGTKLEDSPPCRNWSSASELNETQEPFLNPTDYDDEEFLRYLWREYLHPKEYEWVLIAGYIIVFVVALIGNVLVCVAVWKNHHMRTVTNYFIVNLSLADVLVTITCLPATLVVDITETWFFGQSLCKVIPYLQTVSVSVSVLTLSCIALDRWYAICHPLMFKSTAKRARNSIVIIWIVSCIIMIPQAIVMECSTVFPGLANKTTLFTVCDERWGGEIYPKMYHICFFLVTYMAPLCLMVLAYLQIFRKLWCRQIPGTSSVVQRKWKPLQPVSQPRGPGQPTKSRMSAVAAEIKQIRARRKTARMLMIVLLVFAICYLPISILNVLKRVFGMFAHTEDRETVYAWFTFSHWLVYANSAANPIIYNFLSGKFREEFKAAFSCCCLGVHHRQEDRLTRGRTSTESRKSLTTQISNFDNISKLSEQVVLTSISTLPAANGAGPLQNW
In short: as §1

[1] = 10 μM test compound, CHO cells expressing human OX1 receptor, OX-A 1 nM
[2] = 10 μM test compound, CHO cells expressing human OX2 receptor, OX-A 0.3 nM

| Structure (SMILES) | inhibition at 10 µM (human OX1 receptor; [1]) [%] | inhibition at 10 µM (human OX2 receptor; [2]) [%] | also measured |
| --- | --- | --- | --- |
| Cc1cc(N2CCN(C(=O)c3cc(Cl)ccc3-c3ncccn3)C[C@H](C)O2)nc(C)n1 [Example 197, (5-chloro-2-(pyrimidin-2-yl)phenyl)((7S)-2-(2,6-dimethylpyrimidin-4-yl)-7-methyl-1,2,5-oxadiazepan-5-yl)methanone] | 96 | 102 |  |
| Cc1cc(N2CCN(C(=O)c3cc(F)c(F)cc3-c3ncccn3)C[C@H](C)O2)nc(C)n1 [Example 198, (4,5-difluoro-2-(pyrimidin-2-yl)phenyl)((7S)-2-(2,6-dimethylpyrimidin-4-yl)-7-methyl-1,2,5-oxadiazepan-5-yl)methanone] | 80 | 98 |  |
| Cc1ccc(-n2nccn2)c(C(=O)N2CCN(c3cccc(C#N)c3)OC[C@H]2C)c1 [Example 140, 3-((6R)-6-methyl-5-(5-methyl-2-(2H-1,2,3-triazol-2-yl)benzoyl)-1,2,5-oxadiazepan-2-yl)benzonitrile] |  |  | inhibition at 10 µM (human OX1 receptor): 21%; inhibition at 10 µM (human OX2 receptor): 88% |
| COc1ccc(Cl)cc1C(=O)N1CCON(c2nc(C)cc(C)n2)CC1 [Example 58, (5-chloro-2-methoxyphenyl) (2-(4,6-dimethylpyrimidin-2-yl)-1,2,5-oxadiazepan-5-yl)methanone] |  |  | inhibition at 10 µM (human OX1 receptor): 29%; inhibition at 10 µM (human OX2 receptor): 99% |
| Cc1cc(N2CCN(C(=O)c3ccccc3-n3nccn3)C[C@H](C)O2)nc(C(F)(F)F)n1 [Example 94, ((7S)-7-methyl-2-(6-methyl-2-(trifluoromethyl)pyrimidin-4-yl)-1,2,5-oxadiazepan-5-yl) (2-(2H-1,2,3-triazol-2-yl)phenyl)methanone] | 106 | 104 |  |
| Cc1nccc(N2CCN(C(=O)c3ccccc3-c3ncccn3)C[C@H](C)O2)n1 [Example 206, ((7S)-7-methyl-2-(2-methylpyrimidin-4-yl)-1,2,5-oxadiazepan-5-yl)(2-(pyrimidin-2-yl)phenyl)methanone] | 28 | 100 |  |
| COc1cccc(N2CCN(C(=O)c3ccccc3-n3nccn3)[C@H](C)CO2)n1 [Example 157, ((6R)-2-(6-methoxypyridin-2-yl)-6-methyl-1,2,5-oxadiazepan-5-yl)(2-(2H-1,2,3-triazol-2-yl)phenyl)methanone] | 93 | 91 |  |
| Cc1cc(N2C[C@@H](C)N(C(=O)c3ccccc3-c3nccs3)[C@@H](C)CO2)nc(C)n1 [Example 186, ((4R,6S)-2-(2,6-dimethylpyrimidin-4-yl)-4,6-dimethyl-1,2,5-oxadiazepan-5-yl)(2-(1,3-thiazol-2-yl)phenyl)methanone] | 23 | 66 |  |
| C[C@H]1CN(C(=O)c2ccccc2-n2nccn2)CCN(c2ccc(Cl)cn2)O1 [Example 98, ((7S)-2-(5-chloropyridin-2-yl)-7-methyl-1,2,5-oxadiazepan-5-yl) (2-(2H-1,2,3-triazol-2-yl)phenyl)methanone] | 97 | 104 |  |
| Cc1cc(C#N)nc(N2CCN(C(=O)c3ccccc3-n3nccn3)[C@H](C)CO2)n1 [Example 152, 6-methyl-2-((6R)-6-methyl-5-(2-(2H-1,2,3-triazol-2-yl)benzoyl)-1,2,5-oxadiazepan-2-yl)pyrimidine-4-carbonitrile] | 82 | 99 |  |
| Cc1nc(N2CCN(C(=O)c3cc(F)c(F)cc3-n3nccn3)C[C@H](C)O2)cc(C(F)(F)F)n1 [Example 107, (4,5-difluoro-2-(2H-1,2,3-triazol-2-yl)phenyl)((7S)-7-methyl-2-(2-methyl-6-(trifluoromethyl)pyrimidin-4-yl)-1,2,5-oxadiazepan-5-yl)methanone] | 37 | 94 |  |
| Cc1cc(C)nc(N2CCN(C(=O)c3cccc4c3OCC4)CCO2)n1 [Example 74, 2,3-dihydro-1-benzofuran-7-yl (2-(4,6-dimethylpyrimidin-2-yl)-1,2,5-oxadiazepan-5-yl)methanone] | 10 | 57 |  |
| Cc1cc(N2C[C@H](C)N(C(=O)c3ccccc3-n3nccn3)CC(C)O2)nc(C)n1 (stereo partly drawn) [Example 190, ((4S)-2-(2,6-dimethylpyrimidin-4-yl)-4,7-dimethyl-1,2,5-oxadiazepan-5-yl)(2-(2H-1,2,3-triazol-2-yl)phenyl)methanone] | 107 | 111 |  |
| Cc1cc(N2C[C@H](C)N(C(=O)c3ccccc3-n3nccn3)CC(C)O2)nc(C)n1 (stereo partly drawn) [Example 191, ((4S)-2-(2,6-dimethylpyrimidin-4-yl)-4,7-dimethyl-1,2,5-oxadiazepan-5-yl)(2-(2H-1,2,3-triazol-2-yl)phenyl)methanone] |  |  | Human Orexin1 receptor inhibition (at 10 μM) (human OX1 receptor; [1]): 106%; Human Orexin2 receptor inhibition (at 10 μM) (human OX2 receptor; [2]): 109% |
| Cc1cc(N2CCN(C(=O)c3ccccc3-n3nccn3)C(C)C(C)O2)nc(C)n1 (stereo not drawn) [Example 192, (2-(2,6-dimethylpyrimidin-4-yl)-6,7-dimethyl-1,2,5-oxadiazepan-5-yl)(2-(2H-1,2,3-triazol-2-yl)phenyl)methanone] |  | 101 | Human Orexin1 receptor inhibition (at 10 μM) (human OX1 receptor; [1]): 64% |
| Cc1cc(N2CCN(C(=O)c3c(F)cccc3-n3nccn3)CCO2)nc(C)n1 [Example 16, (2-(2,6-dimethylpyrimidin-4-yl)-1,2,5-oxadiazepan-5-yl) (2-fluoro-6-(2H-1,2,3-triazol-2-yl)phenyl)methanone hydrochloride] | 21 | 98 |  |

Now from value to molecule, other results behind:

| inhibition at 10 µM (human OX1 receptor; [1]) [%] | inhibition at 10 µM (human OX2 receptor; [2]) [%] | Structure (SMILES) | also measured |
| --- | --- | --- | --- |
| 82 | 100 | Cc1cc(N2CCN(C(=O)c3ccc(Br)cc3-n3nccn3)C[C@H](C)O2)nc(C)n1 [Example 205, (4-bromo-2-(2H-1,2,3-triazol-2-yl)phenyl)((7S)-2-(2,6-dimethylpyrimidin-4-yl)-7-methyl-1,2,5-oxadiazepan-5-yl)methanone] |  |
| 100 | 103 | Cc1cc(N2CCN(C(=O)c3ccccc3-n3nccn3)[C@H](C)CO2)nc(C2(C)CC2)n1 [Example 155, ((6R)-6-methyl-2-(6-methyl-2-(1-methylcyclopropyl)pyrimidin-4-yl-1,2,5-oxadiazepan-5-yl)(2-(2H-1,2,3-triazol-2-yl)phenyl)methanone hydrochloride] |  |
| 32 | 99 | Cc1cc(N2CCN(C(=O)c3ccccc3-c3ncc(F)cn3)CCO2)nc(C)n1 [Example 222, (2-(2,6-dimethylpyrimidin-4-yl)-1,2,5-oxadiazepan-5-yl)(2-(5-fluoropyrimidin-2-yl)phenyl)methanone] |  |
| 100 | 98 | Cc1ccc(-n2nccn2)c(C(=O)N2CCON(c3nc4ccc(Cl)cc4o3)CC2)c1 [Example 39, (2-(6-chloro-1,3-benzoxazol-2-yl)-1,2,5-oxadiazepan-5-yl)(5-methyl-2-(2H-1,2,3-triazol-2-yl)phenyl)methanone] |  |
| 66 | 100 | Cc1cc(N2CCN(C(=O)c3cc(Cl)ccc3-n3nccn3)[C@H](C)CO2)nc(C)n1 [Example 194, (5-chloro-2-(2H-1,2,3-triazol-2-yl)phenyl)((6R)-2-(2,6-dimethylpyrimidin-4-yl)-6-methyl-1,2,5-oxadiazepan-5-yl)methanone] |  |
| 38 | 96 | Cc1cc(N2CCN(C(=O)c3ccccc3-c3cncs3)CCO2)nc(C)n1 [Example 32, (2-(2,6-dimethyl-pyrimidin-4-yl)-1,2,5-oxadiazepan-5-yl) (2-(1,3-thiazol-5-yl)phenyl) methanone] |  |
| -4 | 5 | Cc1ccc(-n2nccn2)c(C(=O)N2CCON(c3cc(C)nc(C)c3)CC2)c1 [Example 35, (2-(2,6-dimethylpyridin-4-yl)-1,2,5-oxadiazepan-5-yl)(5-methyl-2-(2H-1,2,3-triazol-2-yl)phenyl)methanone] |  |
| 53 | 100 | Cc1cc(N2CCN(C(=O)c3ccccc3-n3nccn3)[C@H](C)CO2)nc(C)n1 [Example 148, ((6R)-2-(2,6-dimethylpyrimidin-4-yl)-6-methyl-1,2,5-oxadiazepan-5-yl) (2-(2H-1,2,3-triazol-2-yl)phenyl)methanone] |  |
